Measurements as given in publication PMC5550016, “Aminophosphinates against Helicobacter pylori ureolysis—Biochemical and whole-cell inhibition characteristics” (PLoS ONE, 2017).
“And” between values parts separate entries of the source, which are not always exact repeats. Equal entries are not always repeated. Where two headings read alike, the source gives them in different places.

Tests used:
[1] = parameters: method as in PMID 9508511; conditions: pH 2; cited from earlier work
[2] = tested on: immortalized murine endothelial cell line from peripheral lymph node HEC A10; test: Sulforhodamine B antiproliferative assay, HEC A10; format: cell-based; conditions: Mus musculus, compound 0.5 mM, 72 h, read-out: % Proliferation inhibition ± SD
Method: (§1) The BALB/3T3 cell line was cultured in Dulbecco MEM (Gibco, Scotland) supplemented with 10% (v/v) FBS (Sigma-Aldrich, Poznań, Poland) and 2 mM L-glutamine (Sigma-Aldrich, Poznań, Poland). The MCF-10A cell line was cultured in F-12 Nutrient mixture supplemented with 5% (v/v) horse serum (both Gibco, Scotland), 0.05 μg/mL cholera toxin, 10 μg/mL insulin, 0.5 μg/mL hydrocortisone, and 20 ng/mL EGFH (all Sigma-Aldrich, Poznań, Poland). The Eph4-Ev cell line was cultured in Dulbecco MEM supplemented with 2 mM L-glutamine, 10% (v/v) calf bovine serum (ATCC Rockville, Maryland, USA) and puromycin (Sigma-Aldrich, Poznań, Poland). The HEC A10 cell line was cultured in OPTI-MEM (IIET, Wroclaw, Poland) supplemented with 2 mM L-glutamine and 5% (v/v) FBS. All culture media were additionally supplemented with antibiotics: 100 U/mL penicillin and 100 μg/mL streptomycin (both Polfa-Tarchomin, Poland). During all experiments, cells were maintained in a humid atmosphere at 37°C and 5% CO2 and passaged twice a week using EDTA-Trypsin (pH 8; IIET, Wroclaw, Poland) solution as a detachment agent.
(§2) This assay was used as previously described with minor modifications. Briefly, 24 h before adding the tested compounds, cells were seeded in 96-well plates (Sarstedt, Germany) in appropriate culture medium with 10^5 […] (100 μL/well). Cells were treated with each compound in at least four concentrations in the range from 500–4 μM for 72 h. Next, cells were fixed with 50 μL/well of 50% (w/v) trichloroacetic acid (Avantor Performance Materials, Gliwice, Poland). After a 1-hour incubation, the plates were washed several times with tap water, and 50 μL of 0.4% (w/v) solution of sulforhodamine B (Sigma-Aldrich, Germany) in 1% (v/v) acetic acid (Avantor Performance Materials, Gliwice, Poland) was added to each well. After a 30-min incubation at room temperature, unbound dye was washed out with 1% (v/v) acetic acid, whereas bound dye was solubilized with 10 mM unbuffered TRIS (Avantor Performance Materials, Gliwice, Poland) solution. The entire procedure was performed using an EL-406 washing station (BioTek Instruments, USA). Next, absorbance at 540 nm was measured using a Synergy H4 Hybrid Reader (BioTek Instruments, USA). Compounds at each concentration were tested in triplicate in a single experiment, and each experiment was repeated three times independently. The results were calculated using the Prolab-3 system based on Cheburator 0.4 software and was presented as proliferation inhibition percentages at the highest concentration used.

[3] = tested on: murine mammary gland epithelium Eph4-Ev; test: Sulforhodamine B antiproliferative assay, Eph4-Ev; format: cell-based; conditions: Mus musculus, compound 0.5 mM, 72 h, read-out: % Proliferation inhibition ± SD
Method: as §1, §2

[4] = tested on: mouse fibroblasts BALB/3T3; test: Sulforhodamine B antiproliferative assay, BALB/3T3; format: cell-based; conditions: compound 0.5 mM, 72 h, read-out: % Proliferation inhibition ± SD
Method: as §1, §2

[5] = target: T1, urease in intact E. coli (pGEM::ureOP) cells (Helicobacter pylori, UniProt B5Z674); test: Urease inhibition in whole cells of E. coli + pGEM::ureOP; format: cell-based; conditions: IC50 exceeding 2 mM considered not active
T1 construct: plasmid pGEM::ureOP, which encodes the entire urease gene cluster, was used to produce recombinant H. pylori urease; expressed in transfected cells; host or cells: E. coli Rosetta2 (DE3) transformed with pGEM::ureOP
T1 sequence (B5Z674 whole entry, looked up): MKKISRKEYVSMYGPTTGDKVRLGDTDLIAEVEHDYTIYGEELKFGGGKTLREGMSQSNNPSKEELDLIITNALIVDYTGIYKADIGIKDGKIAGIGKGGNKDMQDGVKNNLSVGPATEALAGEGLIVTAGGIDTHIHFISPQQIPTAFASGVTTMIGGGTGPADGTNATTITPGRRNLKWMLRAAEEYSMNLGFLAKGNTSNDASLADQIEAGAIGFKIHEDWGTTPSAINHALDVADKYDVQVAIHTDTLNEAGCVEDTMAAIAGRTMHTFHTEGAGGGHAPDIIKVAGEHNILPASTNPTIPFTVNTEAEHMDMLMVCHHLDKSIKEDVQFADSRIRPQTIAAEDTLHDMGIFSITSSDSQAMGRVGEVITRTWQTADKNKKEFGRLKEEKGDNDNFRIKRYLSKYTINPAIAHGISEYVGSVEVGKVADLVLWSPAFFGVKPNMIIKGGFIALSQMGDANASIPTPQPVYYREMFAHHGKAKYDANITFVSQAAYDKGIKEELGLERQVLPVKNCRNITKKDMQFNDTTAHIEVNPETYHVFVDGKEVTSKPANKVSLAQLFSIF
Method: The expression strain E. coli + pGEM::ureOP was cultured in 150 mL of LB broth (Biocorp, Poland) with 100 μg/mL ampicillin (Polfa, Tarchomin, Poland) at 37°C and induced with IPTG (0.75 mM) and Ni^2+ (0.75 mM) during the exponential growth phase, which was determined by the OD600 measurements (OD600 = 0.6). Further expression was conducted for 24 h at 22°C. The bacterial culture (1 mL) was harvested via centrifugation (2 min, 20 376 x g, 37°C) and washed three times with PBS. The pellets from 1-mL samples of the expression cell culture were resuspended in 100 μL of PBS. The hydrolysis of urea that is catalyzed by whole bacterial cells was performed in 96-well plates (Rotilabo, U-profile). The reaction progress curves were obtained by the addition of bacterial cells (1×10^9 CFU/mL final concentration) into mixtures (300 μL final volume) that contained 5 mM urea and various inhibitor concentrations that depended on their inhibitory strength. Alternatively, the reaction was initiated via the addition of a concentrated solution of urea after a 120-min preincubation of bacterial cells with the inhibitor. Samples (50 μL) of the reaction mixture were removed after the appropriate reaction time. The enzymatic reactions in the samples were terminated via the introduction of 100 μL of phenol-sodium nitroprusside solution, immediately followed by the addition of 100 μL of NaOH-hypochlorite solution. The absorption of indophenol blue was measured at 650 nm using a TECAN-Sunrise absorbance reader equipped with a gradient filter and Magellan software. The IC50 values were determined from the linear regression of the urease activity versus the logarithm of the inhibitor concentration. The reaction was studied in the absence and in the presence of the inhibitor. The influence of dimethylformamide (DMF), which was used as a solvent for several compounds, was also determined.

[6] = target: T2, urease in intact H. pylori J99 (Helicobacter pylori, UniProt P69997); test: Urease inhibition in whole cells of H. pylori J99; format: cell-based
T2 construct: In the intact H. pylori J99 cells, the urease susceptibility profile was similar to that of E. coli (pGEM::ureOP); endogenous in cells
T2 sequence (Q9ZMZ4 whole entry): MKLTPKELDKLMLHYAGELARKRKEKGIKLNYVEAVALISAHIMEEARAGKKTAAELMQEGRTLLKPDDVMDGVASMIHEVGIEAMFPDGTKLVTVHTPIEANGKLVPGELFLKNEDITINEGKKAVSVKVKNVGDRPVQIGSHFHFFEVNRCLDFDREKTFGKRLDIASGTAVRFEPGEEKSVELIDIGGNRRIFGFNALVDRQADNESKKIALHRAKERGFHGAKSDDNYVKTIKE
T2 sequence (P69997 whole entry): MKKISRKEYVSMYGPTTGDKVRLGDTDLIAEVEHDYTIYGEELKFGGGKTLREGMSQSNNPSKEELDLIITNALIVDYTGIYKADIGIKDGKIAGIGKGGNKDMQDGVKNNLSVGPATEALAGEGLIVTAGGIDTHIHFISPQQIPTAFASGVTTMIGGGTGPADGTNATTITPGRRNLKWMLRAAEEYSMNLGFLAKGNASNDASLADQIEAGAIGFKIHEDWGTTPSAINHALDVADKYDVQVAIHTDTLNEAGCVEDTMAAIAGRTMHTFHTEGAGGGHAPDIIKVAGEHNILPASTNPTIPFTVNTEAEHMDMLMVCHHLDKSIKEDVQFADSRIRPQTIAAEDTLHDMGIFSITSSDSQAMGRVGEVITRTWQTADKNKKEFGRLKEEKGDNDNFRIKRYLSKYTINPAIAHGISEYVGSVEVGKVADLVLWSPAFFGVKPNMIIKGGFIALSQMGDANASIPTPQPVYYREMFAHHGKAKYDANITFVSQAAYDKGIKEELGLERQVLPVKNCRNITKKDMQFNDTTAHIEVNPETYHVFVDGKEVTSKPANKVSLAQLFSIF

[7] = target: T3, purified recombinant urease from H. pylori (Helicobacter pylori, UniProt B5Z674); test: Inhibition of purified recombinant H. pylori urease (phenol-hypochlorite, Lineweaver-Burk); format: biochemical; conditions: 50 mM phosphate buffer pH 7.5, 37°C, 0.1–2.5 mM urea, competitive reversible inhibition
T3 construct: plasmid pGEM::ureOP, which encodes the entire urease gene cluster, was used to produce recombinant H. pylori urease; made in house; host or cells: E. coli Rosetta2 (DE3) + pGEM::ureOP
T3 sequence (B5Z674 whole entry, looked up): as the sequence (B5Z674 whole entry, looked up) above
Method: The kinetic parameters of urease were determined by measuring the initial rates of the reactions in 50 mM phosphate buffer (pH 7.5) at 37°C. Ammonia was routinely quantified by the phenol hypochlorite method as reported previously.
Inhibition studies were conducted by initiating the enzymatic reaction with the addition of the enzyme into assay mixtures (200 μL total volume) containing increasing concentrations of inhibitors and 0.1–2.5 mM urea. After 15 min of incubation at 37°C, the reaction was stopped by adding phenol-hypochlorite reagents and the absorbance of the formed indophenol blue complexes was measured at 650 nm. The Ki values were determined from Lineweaver-Burk plots after testing at least five inhibitor concentrations in a range that depended on their inhibitory strength. The concentration of inhibitor that caused the loss of 50% of the enzyme’s activity (IC50) was determined from the measurements that were performed at a urea concentration of 0.6 mM and calculated using the linear regression of the urease activity versus the logarithm of the inhibitor concentrations.
The values of Ki and IC50 for all analyzed compounds were calculated using the appropriate equations in GraphPad Prism 5. Errors were reported with two significant digits, and each measured parameter was given with the same number of decimal places as its error [32].

[8] = tested on: human mammary gland MCF-10A; test: Sulforhodamine B antiproliferative assay, MCF-10A; format: cell-based; conditions: compound 0.5 mM, 72 h, read-out: % Proliferation inhibition ± SD
Method: as §1, §2

[9] = target: purified urease from Sporosarcina pasteurii (SPU); parameters: method as in PMID 18717581, PMID 20684601, PMID 21559954, PMID 25699141; conditions: read-out: Ki against SPU; cited from earlier work
[10] = target: purified urease from Proteus mirabilis (PMU); parameters: method as in PMID 18717581, PMID 20684601, PMID 21559954, PMID 25699141; conditions: read-out: Ki against PMU; cited from earlier work
[11] = IC500, without preincubation of cells with inhibitory compounds, 30-min reactions, 5 mM urea
[12] = IC502h PBS, 2 h of preincubation with inhibitors in PBS
[13] = cells grown with urea, 2 h of preincubation with inhibitors in PBS under microaerobic conditions, read-out: IC502h PBS
[14] = cells grown with urea, 2 h of preincubation with inhibitors in growth medium under microaerobic conditions, read-out: IC502h medium
[15] = cells grown with urea, without preincubation, read-out: IC500
[16] = cells grown without urea, 2 h of preincubation with inhibitors in PBS under microaerobic conditions, read-out: IC502h PBS
[17] = cells grown without urea, without preincubation, read-out: IC500

| SMILES | half-life [1] | inhibition at 500 µM [2] | inhibition at 500 µM [3] | inhibition at 500 µM [4] | IC50 [5, 11] | IC50 [5, 12] | IC50 [6, 13] | IC50 [6, 14] | IC50 [6, 15] | IC50 [6, 16] | IC50 [6, 17] | Ki ([7]; Ki) | inhibition at 500 µM [8] | Ki [9] | Ki [10] | IC50 ([5]; read-out: IC500, without preincubation of cells with inhibitory compounds, 30-min reactions, 5 mM urea) | IC50 ([5]; read-out: IC502h PBS, 2 h of preincubation with inhibitors in PBS) | Ki [7] | IC50 ([6]; cells grown without urea, preincubated cells, read-out: IC50) |
| --- | --- | --- | --- | --- | --- | --- | --- | --- | --- | --- | --- | --- | --- | --- | --- | --- | --- | --- | --- |
| NP(N)(=O)NC(=O)c1ccc(F)cc1 [fluorofamide, N-(diaminophosphinyl)-4-fluorobenzamide] | 5 min |  |  |  |  |  |  |  |  |  |  |  |  |  |  |  |  |  |  |
| CCCNCP(=O)(O)CN [Compound 9] |  | 2.2 ± 1.5% | 0% | 0.7 ± 0.6% | 746 ± 94 µM | 306 ± 43 µM | 940 ± 59 µM | 553 ± 44 µM | 1500 ± 160 µM | 883 ± 96 µM | 772 ± 143 µM | 22.1 ± 2.1 µM | 0% |  |  |  |  |  |  |
| CNCP(=O)(O)CO [Compound 4, N-methylaminomethyl-P-hydroxymethylphosphinic acid] |  | 0% | 0% | 0% | 759 ± 106 µM | 430 ± 63 µM | 373 ± 48 µM | 207 ± 11 µM | 465 ± 42 µM | 676 ± 23 µM | 341 ± 41 µM | 1.03 µM | 0% | 0.43 µM |  |  |  |  |  |
| CNCP(=O)(O)O [Compound 1, N-methylaminomethylphosphonic acid] |  | 0% | 1.3 ± 2.3% | 2.7 ± 1.8% | 164 ± 24 µM | 110 ± 21 µM | 349 ± 29 µM | 202 ± 43 µM | 400 ± 8.7 µM | 598 ± 81 µM | 316 ± 18 µM | 38.3 ± 1.1 µM | 0% |  |  |  |  |  |  |
| CN(C)CP(C)(=O)O [Compound 3, N,N-dimethylaminomethyl-P-methylphosphinic acid] |  |  |  |  | 179 ± 32 µM | 25.1 ± 4.9 µM | 395 ± 37 µM | 304 ± 16 µM | 640 ± 18 µM | 765 ± 31 µM | 530 ± 24 µM | 9.27 ± 0.35 µM |  | 0.62 µM |  |  |  |  |  |
| CCCCCCNCP(=O)(O)CN [Compound 13, N-n-hexylaminomethyl-P-aminomethylphosphinic acid] |  | 0% | 0% | 6.5 ± 3.6% | 186 ± 30 µM | 16.9 ± 2.2 µM | 608 ± 23 µM | 205 ± 15 µM | 510 ± 16 µM | 742 ± 55 µM | 597 ± 19 µM | 0.29 µM and 0.294 µM | 0.5 ± 0.4% |  | 0.2 µM |  |  |  |  |
| CNCP(=O)(O)CNC [Compound 21, bis(N-methylaminomethyl)phosphinic acid] |  | 0% | 2.2 ± 1.5% | 0% | 1260 ± 189 µM | 269 ± 39 µM | 549 ± 15 µM | 117 ± 7.4 µM | 443 ± 24 µM | 132 ± 21 µM | 581 ± 37 µM | 26.1 ± 1.8 µM | 0% |  |  |  |  |  |  |
| CCCCCCCCNCP(=O)(O)CN [Compound 15] |  | 0% | 2.7 ± 1.1% | 0% |  |  | 712 ± 28 µM | 276 ± 17 µM | 1010 ± 84 µM | 638 ± 22 µM | 1260 ± 53 µM |  | 1.8 ± 1.2% |  |  | > 2000 µM | > 2000 µM | > 2000 µM |  |
| CNCP(=O)(O)CN [Compound 7] |  | 0% | 3.9 ± 2.1% | 0% | 880 ± 105 µM | 440 ± 61 µM | 456 ± 45 µM | 574 ± 44 µM | > 2000 µM | 418 ± 48 µM | 327 ± 68 µM | 20.9 ± 2 µM | 0% |  |  |  |  |  | < 500 µM |
